Legend:
Test in all cases: NCI-60 screening, one-dose (10 µM) and five-dose, SRB
[1] = system: HOP-92; format: cell-based, human; settings: Homo sapiens; 10 μM; HOP-92, Non-Small-Cell Lung Cancer; read-out: Growth percentage
[2] = system: MDA-MB-468; format: cell-based, human; settings: Homo sapiens, MDA-MB-468, 10 μM; MDA-MB-468, Breast Cancer; read-out: Growth percentage
Text: Control cells Test cells FLD
available usually at NCI library.
An aliquot of frozen drug concentrate is […]

[3] = system: CAKI-1; format: cell-based; settings: Homo sapiens; 10 μM; CAKI-1, Renal Cancer; read-out: Growth percentage
[4] = system: NCI-H226; format: cell-based, human; settings: Homo sapiens; 10 μM; NCI-H226, Non-Small-Cell Lung Cancer; read-out: Growth percentage
[5] = system: SF-268; format: cell-based, human; settings: Homo sapiens; 10 μM; SF-268, CNS Cancer; read-out: Growth percentage
[6] = system: MCF7; format: cell-based, human; settings: Homo sapiens, MCF7, 10 μM; MCF7, Breast Cancer; read-out: Growth percentage
[7] = system: UACC-257; format: cell-based, human; settings: Homo sapiens; 10 μM; UACC-257, Melanoma; read-out: Growth percentage
[8] = system: DU-145; format: cell-based, human; settings: Homo sapiens; 10 μM; DU-145, Prostate Cancer; read-out: Growth percentage
[9] = system: 786−0; format: cell-based, human; settings: Homo sapiens; 10 μM; 786−0, Renal Cancer; read-out: Growth percentage
[10] = system: SR; format: cell-based, human; settings: 10 μM, Leukemia
[11] = system: OVCAR-4; format: cell-based, human; settings: Homo sapiens; 10 μM; OVCAR-4, Ovarian Cancer; read-out: Growth percentage
[12] = system: SK-MEL-2; format: cell-based, human; settings: Homo sapiens; 10 μM; SK-MEL-2, Melanoma; read-out: Growth percentage
[13] = system: COLO 205; format: cell-based, human; settings: Homo sapiens; 10 μM; COLO 205, Colon Cancer; read-out: Growth percentage
[14] = system: ACHN; format: cell-based, human; settings: Homo sapiens, 10 μM, Renal Cancer, read-out: Growth percentage
[15] = system: HS 578T; format: cell-based, human; settings: Homo sapiens, 10 μM, Breast Cancer, read-out: Growth percentage
[16] = system: SW-620; format: cell-based, human; settings: Homo sapiens; 10 μM; SW-620, Colon Cancer; read-out: Growth percentage
[17] = system: HCT-116; format: cell-based, human; settings: Homo sapiens, HCT-116, 10 μM; HCT-116, Colon Cancer; read-out: Growth percentage
[18] = system: KM12; format: cell-based, human; settings: Homo sapiens, KM12, 10 μM; KM12, Colon Cancer; read-out: Growth percentage
[19] = system: NCI-H23; format: cell-based, human; settings: Homo sapiens; 10 μM; NCI-H23, Non-Small-Cell Lung Cancer; read-out: Growth percentage
[20] = system: EKVX; format: cell-based, human; settings: Homo sapiens, 10 μM, Non-Small-Cell Lung Cancer, read-out: Growth percentage
[21] = system: RPMI-8226; format: cell-based, human; settings: Homo sapiens, RPMI-8226, 10 μM; RPMI-8226, Leukemia; read-out: Growth percentage
[22] = system: CCRF-CEM; format: cell-based, human; settings: Homo sapiens, 10 μM, Leukemia, read-out: Growth percentage
[23] = system: RXF 393; format: cell-based; settings: Homo sapiens; 10 μM; RXF 393, Renal Cancer; read-out: Growth percentage
[24] = system: TK-10; format: cell-based, human; settings: Homo sapiens; 10 μM; TK-10, Renal Cancer; read-out: Growth percentage
[25] = system: HCC-2998; format: cell-based, human; settings: Homo sapiens; 10 μM; HCC-2998, Colon Cancer; read-out: Growth percentage
[26] = system: NCI-H460; format: cell-based, human; settings: Homo sapiens, NCI-H460, 10 μM; NCI-H460, Non-Small-Cell Lung Cancer; read-out: Growth percentage
[27] = system: MDA-MB231/ATCC; format: cell-based; settings: 10 μM; MDA-MB231/ATCC, Breast Cancer
[28] = system: SF-295; format: cell-based, human; settings: Homo sapiens; 10 μM; SF-295, CNS Cancer; read-out: Growth percentage
[29] = system: SN12C; format: cell-based, human; settings: Homo sapiens, 10 μM, Renal Cancer, read-out: Growth percentage
[30] = system: K-562; format: cell-based, human; settings: Homo sapiens, K562, 10 μM; K-562, Leukemia; read-out: Growth percentage

COc1ccc(/C=C/C(=O)c2sc(SCC(=O)N3CCN(c4cc5c(cc4F)c(=O)c(C(=O)O)cn5C4CC4)CC3)nc2C)cc1 [Compound 4j, (E)-1-Cyclopropyl-6-fluoro-7-(4-(2-((5-(3-(4-methoxyphenyl)acryloyl)-4-methylthiazol-2-yl)thio)acetyl)piperazin-1-yl)-4-oxo-1,4-dihydroquinoline-3-carboxylic Acid] was tested, and the activity at 10 µM [1] was 105%, the activity at 10 µM [2] was 107% and the activity at 10 µM [3] was 94.9%. It also gave an activity at 10 µM [4] of 102%, an activity at 10 µM [5] of 148% and an activity at 10 µM [6] of 93.3%. For the same molecule, the activity at 10 µM [7] was 114%, the activity at 10 µM [8] was 113% and the activity at 10 µM [9] was 88.6%. The Growth percentage [10] was 88.9%, the activity at 10 µM [11] was 101% and the activity at 10 µM [12] was 104%. For the same molecule, the activity at 10 µM [13] was 106%, the activity at 10 µM [14] was 97.4% and the activity at 10 µM [15] was 96.4%. For the same molecule, the activity at 10 µM [16] was 123%, the activity at 10 µM [17] was 103% and the activity at 10 µM [18] was 112%. The activity at 10 µM [19] was 102%, the activity at 10 µM [20] was 103% and the activity at 10 µM [21] was 106%. For the same molecule, the activity at 10 µM [22] was 110%, the activity at 10 µM [23] was 99.3% and the activity at 10 µM [24] was 102%. For the same molecule, the activity at 10 µM [25] was 100%, the activity at 10 µM [26] was 106% and the Growth percentage [27] was 94.8%. It also gave an activity at 10 µM [28] of 101%, an activity at 10 µM [29] of 96.2% and an activity at 10 µM [30] of 98.3%.
